Structures are written as SMILES.

Here are results for seven compounds from patent publication US8084499B2, “Modified clay mineral” (Ajinomoto Co., Inc., priority 2006, dated 2011).

The nature of the data set: Emulsion stability (B-type viscometer, 60 rpm viscosity / 6 rpm viscosity). The following applies: emulsion compositions similar to Example 1, compound of formula (1) with given R1/R2 instead of cocoylarginine ethyl ester.
Protocol: A B-type (Brookfield type) viscometer (manufactured by TOKYO KEIKI, DIGITAL VISCOMETER DVL-B) was used. About 100 ml of each emulsion composition was placed in a glass vial container, a rotor was appropriately selected, and the value obtained at a room temperature condition of 25° C., number of rotation of 6 or 60 rpm after 30 seconds was taken as the measurement value at each number of rotation. The measurement value at 60 rpm was divided by the measurement value at 6 rpm, and 0.10 to 0.19 was rated as ⊙, 0.20 to 0.29 was rated as ◯, 0.30 to 0.39 was rated as Δ, and not less than 0.40 was rated as x.
Turning to `CCCCCCCCCCCC(=O)NC(CCCNC(=N)N)C(=O)OCC` (stereo not shown) [lauric acid residue / ethyl group, N-lauroylarginine ethyl ester cation], the “emulsion stability, rating” value is recorded as “⊙ (0.10 to 0.19 was rated as ⊙)”.
Regarding `CCCCCCCCCCCC(=O)NC(CCCNC(=N)N)C(=O)OCC(C)C` (stereo not shown) [lauric acid residue / isobutyl group, N-lauroylarginine isobutyl ester cation], the “emulsion stability, rating” value was “⊙ (0.10 to 0.19 was rated as ⊙)”.
With `CCCCCCCCCCCC(=O)N[C@@H](CCCNC(=N)N)C(=O)OC(C)C` [lauric acid residue / isopropyl group, N-lauroylarginine isopropyl ester cation], the “emulsion stability, rating” value is recorded as “⊙ (0.10 to 0.19 was rated as ⊙)”.
To `CCCCCCCCCCCC(=O)NC(CCCNC(=N)N)C(=O)OC(C)CC` (stereo not shown) [lauric acid residue / s-butyl group, N-lauroylarginine s-butyl ester cation] belongs “⊙ (0.10 to 0.19 was rated as ⊙)”; to `CCCCCCCC/C=C\CCCCCCCC(=O)NC(CCCNC(=N)N)C(=O)OCC` (stereo not shown) [oleic acid residue / ethyl group, N-oleylarginine ethyl ester cation], “⊙ (0.10 to 0.19 was rated as ⊙)”; to `CCCCCCCCCCCCCCCC(=O)NC(CCCNC(=N)N)C(=O)OCC` (stereo not shown) [palmitic acid residue / ethyl group, N-palmitoylarginine ethyl ester cation], “⊙ (0.10 to 0.19 was rated as ⊙)”.
`CCCCCCCCCCCCCCCCCC(=O)N[C@@H](CCCNC(=N)N)C(=O)OCC` [stearic acid residue / ethyl group, N-stearoylarginine ethyl ester cation]: the “emulsion stability, rating” value is “⊙ (0.10 to 0.19 was rated as ⊙)”.
